Source: publication PMC12615753, “Glutathione as a taste modulator: molecular mechanisms of interaction with umami and sweet taste receptors” (Food Chemistry: Molecular Sciences, 2025)

Target: T1, hTAS1R2/hTAS1R3 (Homo sapiens, UniProt Q7RTX0+Q8TE23)
T1 construct: expressed in transfected cells
T1 sequence (Q8TE23 20-839): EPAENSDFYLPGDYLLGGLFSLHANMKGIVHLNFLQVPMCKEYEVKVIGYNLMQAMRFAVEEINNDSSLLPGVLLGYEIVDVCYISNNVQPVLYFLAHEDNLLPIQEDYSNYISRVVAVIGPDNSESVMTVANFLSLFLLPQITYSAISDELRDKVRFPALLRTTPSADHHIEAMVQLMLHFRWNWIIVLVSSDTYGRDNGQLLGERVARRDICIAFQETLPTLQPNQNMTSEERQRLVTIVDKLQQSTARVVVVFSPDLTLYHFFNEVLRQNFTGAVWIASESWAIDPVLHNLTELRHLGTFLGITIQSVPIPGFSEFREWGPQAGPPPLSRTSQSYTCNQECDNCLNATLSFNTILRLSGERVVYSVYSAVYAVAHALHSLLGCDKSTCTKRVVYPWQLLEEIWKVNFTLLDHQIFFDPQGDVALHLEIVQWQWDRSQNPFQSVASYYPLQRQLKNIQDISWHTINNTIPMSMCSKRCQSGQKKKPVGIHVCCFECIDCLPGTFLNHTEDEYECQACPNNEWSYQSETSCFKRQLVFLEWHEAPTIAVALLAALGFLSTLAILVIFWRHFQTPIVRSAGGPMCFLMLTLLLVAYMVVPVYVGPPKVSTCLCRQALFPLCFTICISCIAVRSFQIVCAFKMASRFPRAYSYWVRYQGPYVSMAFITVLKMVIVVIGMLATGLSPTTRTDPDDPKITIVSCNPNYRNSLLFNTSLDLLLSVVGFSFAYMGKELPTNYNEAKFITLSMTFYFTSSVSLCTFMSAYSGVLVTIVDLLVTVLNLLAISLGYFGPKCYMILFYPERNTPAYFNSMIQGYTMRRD
T1 sequence (Q7RTX0 21-852): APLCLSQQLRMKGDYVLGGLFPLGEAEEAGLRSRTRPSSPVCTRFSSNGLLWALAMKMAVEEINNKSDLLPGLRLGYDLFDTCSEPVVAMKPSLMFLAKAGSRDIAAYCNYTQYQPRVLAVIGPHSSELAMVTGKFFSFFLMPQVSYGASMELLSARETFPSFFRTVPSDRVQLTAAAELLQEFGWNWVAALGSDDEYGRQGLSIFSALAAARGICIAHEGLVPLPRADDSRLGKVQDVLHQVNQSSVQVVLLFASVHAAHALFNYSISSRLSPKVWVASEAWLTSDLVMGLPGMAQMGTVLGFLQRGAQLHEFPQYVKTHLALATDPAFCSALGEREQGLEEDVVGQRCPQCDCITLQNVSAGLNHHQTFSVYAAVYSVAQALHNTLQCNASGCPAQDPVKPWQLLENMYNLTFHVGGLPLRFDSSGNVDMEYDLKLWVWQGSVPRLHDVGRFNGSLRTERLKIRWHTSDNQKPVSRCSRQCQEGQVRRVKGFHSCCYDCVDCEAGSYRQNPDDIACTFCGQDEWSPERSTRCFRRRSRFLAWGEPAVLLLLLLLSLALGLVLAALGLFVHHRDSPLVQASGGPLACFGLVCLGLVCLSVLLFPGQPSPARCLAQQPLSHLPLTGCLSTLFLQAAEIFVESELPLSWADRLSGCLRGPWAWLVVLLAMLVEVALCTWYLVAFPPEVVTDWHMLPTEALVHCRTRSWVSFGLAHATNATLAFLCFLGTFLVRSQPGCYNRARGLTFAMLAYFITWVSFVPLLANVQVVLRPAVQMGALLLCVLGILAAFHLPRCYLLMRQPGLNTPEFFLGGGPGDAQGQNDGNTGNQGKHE
Experiment: Calcium assay in transfected HEK293T/17 cells, sweet taste receptor
Type: cell-based
Settings: for EC50: agonist alone, Fig. 2
Method: HEK293T/17 cells (ATCC CRL-11268) were seeded into clear bottom black 96-well plates coated with poly-D-lysine at a density of 32500 cells/well in 100 μL of DMEM containing 4.5 g/L glucose and supplemented with penicillin/streptomycin, 2 mM GlutaMAX and 10 % dialyzed fetal bovine serum. The plates were incubated for 24 h at 37 °C and 7.3 % CO2 in a humidified atmosphere. After incubation, using Fugene® 4 K (0.46 μL/well, Promega, Illkirch, France), the cells were transiently transfected with pcDNA3-hTAS1R1-WT (60 ng/well) or TAS1R1 mutants, pcDNA4-rTAS1R3 (60 ng/well), pcDNA3-Gα15i2 (10 ng/well), and pGP-CMV-GCaMP6s (Addgene #40753; 10 ng/well) as a genetically encoded calcium indicator. Twenty-four hours after transfection, the HEK293T/17 cells were rinsed with 100 μL of C1 buffer (130 mM NaCl, 5 mM KCl, 10 mM HEPES, 2 mM CaCl2, and 5 mM sodium pyruvate, pH 7.4). For each molecule tested, a semi-logarithmic concentration range was created consisting of seven increasing concentrations and a negative control (zero dose) made of buffer C1. […] After 20 s of basal fluorescence calcium measurement, the cells were stimulated via automatic injection of a range of compounds in eight wells, and the signal emission was recorded for an additional 70 s, via a FlexStation 3® fluorometric microplate reader (Molecular Devices, San Jose, CA, USA). […] The emitted fluorescence was measured at a wavelength of 510 nm after excitation at 488 nm. […] For each well, the decrease in the raw fluorescence as the relative fluorescence changed was calculated as ΔF/F0. Replicates were averaged for the wells subjected to the same stimuli, the background signal was subtracted, and the fluorescence changes in mock-transfected cells were subtracted. The half-maximal effective concentration (EC50) and maximal signal amplitude (max ∆F/F0) were calculated via non-linear regression of the sigmoidal function four-parameter logistic equation [f(x) = min + (max − min)/(1 + (x/EC50)^nH)] via SigmaPlot 15.0 software (Grafiti LLC, Palo Alto, CA, USA). […]

Structure (SMILES) | effect of 10 mM GSH on the response to sucralose | EC50 [µM]
N[C@@H](CCC(=O)N[C@@H](CS)C(=O)NCC(=O)O)C(=O)O [GSH, γ-L-glutamyl-L-cysteinyl-glycine] | unaffected | 591 ± 344
OC[C@H]1O[C@H](O[C@]2(CCl)O[C@H](CCl)[C@@H](O)[C@@H]2O)[C@H](O)[C@@H](O)[C@H]1Cl [sucralose, reference compound] |  | 61 ± 2
